Test systems include OVCAR-8 ovarian; SK-MEL-28 melanoma; U251 CNS; IGROV1 ovarian; SK-MEL-2 melanoma; HCT-15 colon; EKVX NSCLC; COLO 205 colon; CAKI-1 renal; UACC-62 melanoma; SN12C renal; UO-31 renal.
Holding throughout (test): NCI-60 cell line screen, 48 h

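Cultured in 96-well plates, cells were exposed to test compound for 48 hours across five concentrations. GI50: concentration for 50% inhibition of growth. TGI denotes the concentration required for complete inhibition of growth.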 Some results are limits rather than exact numbers.

On to `N=c1c2c(=S)n(-c3ccccc3)c(=S)n(-c3ccccc3)c2nc(SCCCN2CCN(c3cccc(Cl)c3)CC2)n1-c1ccccc1`, for which the TGI with OVCAR-8 ovarian, in the assay on SK-MEL-28 melanoma, in the assay on U251 CNS, with IGROV1 ovarian, in the assay with SK-MEL-2 melanoma and in the assay with HCT-15 colon was greater than 100 µM in each case. The TGI with EKVX NSCLC, with COLO 205 colon, in the assay with CAKI-1 renal and in the assay with UACC-62 melanoma was greater than 100 µM in each case.

Turning to `Cc1cc(C)c2c(c1)CC1(Cc3c(C)ccc(C)c3C1=O)C2=O` (centres undefined), the TGI with OVCAR-8 ovarian, in the assay with SK-MEL-28 melanoma, in the assay with U251 CNS, with IGROV1 ovarian, in the assay with SK-MEL-2 melanoma and with SN12C renal was greater than 100 µM throughout. For the same compound, the TGI with HCT-15 colon, in the assay with EKVX NSCLC, in the assay with COLO 205 colon, in the assay on CAKI-1 renal and in the assay on UACC-62 melanoma was greater than 100 µM throughout.

With `CCNc1nnc(-c2nsc3ccccc23)s1`, the TGI in the assay on OVCAR-8 ovarian, in the assay on SK-MEL-28 melanoma, in the assay on U251 CNS, in the assay on IGROV1 ovarian, in the assay on SK-MEL-2 melanoma and in the assay on SN12C renal was greater than 100 µM in each case. Besides, the TGI in the assay with HCT-15 colon, with EKVX NSCLC, with COLO 205 colon, with UO-31 renal and in the assay with UACC-62 melanoma was greater than 100 µM each time.

On to `Cc1ccc([N+](=O)[O-])cc1S(=O)(=O)Nc1ccc(C2=NNC(c3ccccc3O)C2)cc1` (centres undefined), for which the TGI in the assay on OVCAR-8 ovarian was greater than 100 µM; in the assay with SK-MEL-28 melanoma, greater than 100 µM; with IGROV1 ovarian, greater than 100 µM; with SK-MEL-2 melanoma it was 65.6 µM; with SN12C renal, 82.9 µM; in the assay with HCT-15 colon, 97.6 µM. Also, the TGI was 56.9 µM with EKVX NSCLC; 65.5 µM in the assay on COLO 205 colon; greater than 100 µM in the assay with CAKI-1 renal; 79.2 µM in the assay on UO-31 renal; 41.6 µM with UACC-62 melanoma.

Regarding `CC(=O)Oc1ccc2c(c1)oc1c3ccc(OC(C)=O)cc3n(C)c(=O)c21`, the TGI in the assay with OVCAR-8 ovarian was 79.3 µM; in the assay with SK-MEL-28 melanoma, greater than 100 µM; in the assay on U251 CNS it was greater than 100 µM; in the assay on IGROV1 ovarian, greater than 100 µM; with SN12C renal, 66 µM; in the assay on HCT-15 colon, greater than 100 µM. For the same compound, the TGI was 70.8 µM with EKVX NSCLC, greater than 100 µM in the assay with COLO 205 colon, greater than 100 µM in the assay with UO-31 renal and greater than 100 µM in the assay on UACC-62 melanoma.

For the compound `C=C1C(=O)C[C@@]23CCC[C@@]12CC(OCOC)C3` (some centres undefined), the TGI in the assay on OVCAR-8 ovarian turned out to be 9.96 µM; in the assay with SK-MEL-28 melanoma it was 8.14 µM; with U251 CNS, 21 µM; in the assay on IGROV1 ovarian it was 6.02 µM; in the assay on SK-MEL-2 melanoma it was 11.2 µM; in the assay on SN12C renal, 4.53 µM. Further, the TGI stood at 3.08 µM in the assay with HCT-15 colon; 16.7 µM in the assay on EKVX NSCLC; 14.6 µM in the assay with COLO 205 colon; 6.94 µM with CAKI-1 renal; 13.3 µM with UO-31 renal; 7.62 µM in the assay with UACC-62 melanoma.

In the case of `O=C1C=CC2=[N+]([O-])C(c3ccccc3)(c3ccccc3)C(=Nc3ccccc3)C2=C1`, the TGI with OVCAR-8 ovarian was 3.39 µM; with U251 CNS, 7.32 µM; in the assay with IGROV1 ovarian, 3.45 µM; with SK-MEL-2 melanoma, 40.7 µM; in the assay with SN12C renal, 3.96 µM; in the assay with HCT-15 colon, 6.34 µM. The TGI in the assay on EKVX NSCLC turned out to be 14.1 µM; in the assay with CAKI-1 renal, 6.33 µM; in the assay with UO-31 renal, 5.33 µM; with UACC-62 melanoma it was 4.51 µM.

Turning to `N=C(N)c1ccc(-c2ccc(-c3ccccc3)s2)cc1`, the GI50 is 1.67 µM in the assay on SK-MEL-28 melanoma; 1.97 µM in the assay on SK-MEL-2 melanoma; 1.72 µM in the assay with SN12C renal; 2.65 µM in the assay with EKVX NSCLC; 1.58 µM in the assay on CAKI-1 renal; 1.48 µM with UO-31 renal. Further, the GI50 in the assay on UACC-62 melanoma was 1.75 µM. Besides, the TGI with SK-MEL-28 melanoma amounted to 3.13 µM; in the assay with SK-MEL-2 melanoma, 4.1 µM; with SN12C renal it was 3.41 µM; in the assay on EKVX NSCLC it was 11.4 µM; with CAKI-1 renal, 2.92 µM; in the assay with UO-31 renal, 2.81 µM. The same compound returned a TGI in the assay with UACC-62 melanoma of 3.42 µM.

The values are drawn from PubChem BioAssay (NCI).
